Source: patent US10100079B2, “Progesterone-cationic lipid hybrid as anticancer agent and the process of synthesis thereof” (Council of Scientific & Industrial Research, priority 2016, dated 2018)
Where two headings read alike, the source gives them in different places.

Assays:
T47D [1] = experiment: MTT cytotoxicity assay, T47D; format: cell-based; details: Homo sapiens, read-out: IC50 T47D
Protocol: (§1) All cells were grown into mycoplasma free condition. […] All cells were grown up to 75-85% confluency after which cells were trypsinized, counted and seeded, in 96-well plates for cell viability studies, 6-well plates for apoptosis studies, 60 mm dish for cell cycle studies and in 25 cm^2 or 75 cm^2 tissue culture flasks for Western blot studies. The primary stock of the cationic progesterone molecules were made in cell culture grade DMSO and from that secondary stock was prepared by serial dilution with cell culture grade DMSO. The final working concentrations were prepared by diluting the secondary stock in cell culture media keeping the DMSO concentration in working solution below 0.2% with respect to cell culture medium. […] For this assay, 12-18 h before treatment cells were plated in 96-well plate at 5000 cells/well density. […] After completion of the treatment, 10 μL of MTT solution (5 mg/mL) was added in each well and incubated for 4 h. Then the media was removed carefully, and the reduced MTT was dissolved in 1:1 (v/v) DMSO/Methanol and absorbance was measured using multimode reader (Synergy H1, BioTek). Results were represented as percentage of viability={[A550(treated cells)−background]/[A550(untreated cells)−background]}×100. The result was summarized and provided as IC50 table in Table 1.

MDA-MB-231 = experiment: MTT cytotoxicity assay, MDA-MB-231; format: cell-based, human
Protocol: as §1

NIH-3T3 = experiment: MTT cytotoxicity assay, NIH-3T3; format: cell-based, murine; details: Mus musculus, read-out: IC50 NIH-3T3
Protocol: as §1

[2] = test system: non-cancer cells CHO, COS-1 and NIH-3T3; experiment: MTT viability, tested non-cancer cells (combination treatment study, FIG. 1B); format: cell-based; details: 48 h; for toxicity in non-cancer cells: 10 μM (1+10C: 10 μM+10 μM)
Protocol: FIG. 1B: The viability studies of non-cancer cells CHO, COS-1 and NIIH-3T3 after 48 h of continuous treatment with compound 1 (10 μM), 10C [cationic lipid control molecule not containing progesterone moiety]
Cytotoxicity assay of the different compounds were carried out by using 3-(4,5-dimethylthiazol-2-yl)-2,5-diphenyltetrazolium bromide (MTT). For this assay, 12-18 h before treatment cells were plated in 96-well plate at 5000 cells/well density. After incubation cells were treated continuously for 48 h with respective compounds at different concentration (2.5 μM-40 μM). After completion of the treatment, 10 μL of MTT solution (5 mg/mL) was added in each well and incubated for 4 h. Then the media was removed carefully, and the reduced MTT was dissolved in 1:1 (v/v) DMSO/Methanol and absorbance was measured using multimode reader (Synergy H1, BioTek). Results were represented as percentage of viability={[A550(treated cells)−background]/[A550(untreated cells)−background]}×100. The result was summarized and provided as IC50 table in Table 1.
For combination treatment effect, cells were plated in 96 well plates at 5000 cells/well. […] Following 48 h of treatment cell viability was measured following above mentioned MTT study.

T47D (PgR-positive) = experiment: Cell cycle assay by flow cytometry (PI), T47D; format: cell-based, human; details: 10 μM, 24 h
Protocol: (§2) To measure the cellular DNA content, cell cycle assay was carried out. In this assay, first cells were synchronized at early S-phase by double thymidine blocking. When cell confluency was reached around 25-30% in 60 mm dish, cells were treated with 2 mM thymidine, diluted in 10% FBS containing DMEM, for 18 h to block cells at early S-phase. To release the blocking, media was discarded and washed with 1×PBS. Then the cells were incubated with fresh cell culture media containing 10% FBS for 9 h. After releasing, second blocking was done with 2 mM thymidine containing media for 17 h. After second blocking cells were released by discarding the thymidine supplemented media and kept in fresh media. All the respective treatments for cell cycle study were done after 2 h of second release.
(§3) S-phase synchronized cells were either kept untreated or treated with compound 1 (10 μM) and 6c (10 μM) for 24 h. Cells from different treatment groups were harvested, washed with 1×PBS, and fixed with 70% ethanol and kept at −20° C. for overnight. Then the ethanol was removed and washed with 1×PBS. […] After incubation cells were collected by centrifugation, washed with 1×PBS, re-suspended in 500 μL 1×PBS, and data was recorded using flow cytometer (FACS Canto II, Becton-Dickinson, San Jose, Calif., USA) and data were analyzed with FACS Diva software. […]

[3] = test system: MDA-MB-231 (PgR-negative); experiment: Cell cycle assay by flow cytometry (PI), MDA-MB-231; format: cell-based, human; details: MDA-MB-231, 10 μM, 24 h
Protocol: as §2, §3

[4] = test system: chick embryo vascularization; experiment: Chick embryo angiogenesis (CEA) assay; format: in vivo, chicken; details: 20 μL, 5 μM, 4 h
Protocol: FIG. 7B: In vivo chick embryo angiogenesis (CEA) assay. Vascular sprouting was imaged following 0 h (left panel) and 4 h (right panel) treatment with DMSO, 1 (20 μL, 5 μM) and 6c (20 μL, 5 μM). Damaged vessel is indicated by black arrow.
To measure the anti-angiogenic property chick embryo angiogenesis study was carried out. For this study, fertile chicken eggs were incubated at 37° C. humidified incubator. After four day of incubation, the […] of the eggs were cautiously removed using forceps. After that, the egg yolks were carefully treated with DMSO (20 μL; 0.1% DMSO in IX PBS), compound 1 (20 μL; 5 μM), and 6c (20 μL; 5 μM) for 4 h. Images were captured at 0 and 4 h of incubation with a stereomicroscope (Leica). Different angiogenic parameters were quantified using Angioquant software.

T47D [5] = experiment: Apoptosis by flow cytometry (annexin V-FITC/PI), T47D; format: cell-based, human; details: 10 μM, 36 h
Protocol: Apoptosis study was performed by flow cytometry using annexin V-FITC-labeled apoptosis detection kit (Sigma) following manufacturer's protocol. Cells (□×□□^□ cells/well) were seeded in six-well plates and incubate for 16-18 h. After 16-18 h, cells were either kept untreated or treated with 10 μM compound 1 and 10 μM 6c for 36 h. Next, cells were trypsinized and washed with PBS. Then the cells were re-suspended in 1× binding buffer at a density of 1×10^6 cells/ml and stained simultaneously with FITC-labeled annexin V (25 ng/ml) and propidium iodide (50 ng/ml). After 15 min incubation, cells were analyzed using a flow cytometer (FACS Canto II, Becton-Dickinson, San Jose, Calif., USA), and data were analyzed with FCS Express V3 software. Minimum of 10000 events were gated per sample.

Row | Compound | IC50 (T47D [1]; MTT, 48 h continuous treatment) [µM] | IC50 (MDA-MB-231; Homo sapiens, MDA-MB-231, MTT, 48 h continuous treatment, read-out: IC50 MDA-MB-231) [µM] | IC50 (NIH-3T3; NIH3T3, MTT, 48 h continuous treatment, non-cancer cell) [µM] | toxicity in non-cancer cells [2] | total cell population in G2/M phase (T47D (PgR-positive)) [%] | total cell population in G2/M phase [3] [%] | effect on blood vessels / vascularization network [4] | IC50 (T47D [1]; 48 h) [µM] | IC50 (MDA-MB-231; Homo sapiens, MDA-MB-231, 48 h, read-out: IC50 MDA-MB-231, MTT, 48 h continuous treatment) [µM] | IC50 (MDA-MB-231; read-out: IC50 MDA-MB-231, MTT, 48 h continuous treatment) [µM] | IC50 (NIH-3T3; NIH3T3, 48 h) [µM] | toxicity towards tested non-cancer cells ([2]; 2.5 μM-40 μM) | apoptotic cell (T47D [5]) [%]
1 | CC(=O)[C@H]1CC[C@H]2[C@@H]3CCC4=CC(=O)CC[C@]4(C)[C@H]3CC[C@]12C [Compound 1, Progesterone] | > 20 | > 20 | > 20 | did not impart any significant toxicity | 10 | 21 | either no effect or little increase in the vascularization network | – | – | – | – | – | –
2 | CCCCCCCCCC[N+](C)(CCCCCCCCCC)CCNC(=O)CCC(=O)O[C@@H](C)[C@H]1CCC2C3CCC4=CC(=O)CC[C@]4(C)C3CC[C@@]21C (stereo partly drawn) [Compound 6c, N-decyl-N-(2-(4-((1S)-1-((10R,13S,17S)-10,13-dimethyl-3-oxo-2,3,6,7,8,9,10,11,12,13,14, 15,16,17-tetradecahydro-1H-cyclopenta[a]phenanthren-17-yl)ethoxy)-4-oxobutanamido)ethyl)-N-methyldecan-1-aminium chloride] | – | – | – | not in non-cancerous cell | 38 | 34 | blood vessels were either significantly damaged or new blood vessel formation was delayed | 4.32 ± 0.57 | 6.67 ± 0.27 | 3.63 ± 0.16 | > 20 | largely non-toxic | 73
